Data taken from US20100190768A1, “NOVEL FUSED PYROLE DERIVATIVE” (Dainippon Sumitomo Pharma Co., Ltd., priority 2005, published 2010).

Experiments:
human GRα protein = molecular target: T1, human GRα protein (Homo sapiens, UniProt P04150); test: Binding inhibitory assay (displacement of 3H-dexamethasone from the cytoplasm fraction of baculovirus-infected insect cells); conditions: 100 nM test compound; 3H-Dex; NSB with 10 μM dexamethasone; read-out: Binding Inhibitory ratio (%) of 100 nM of test compound
T1 construct: made in house; host or cells: insect cells infected with baculovirus; cytoplasm fraction used
T1 sequence (P04150 1-777): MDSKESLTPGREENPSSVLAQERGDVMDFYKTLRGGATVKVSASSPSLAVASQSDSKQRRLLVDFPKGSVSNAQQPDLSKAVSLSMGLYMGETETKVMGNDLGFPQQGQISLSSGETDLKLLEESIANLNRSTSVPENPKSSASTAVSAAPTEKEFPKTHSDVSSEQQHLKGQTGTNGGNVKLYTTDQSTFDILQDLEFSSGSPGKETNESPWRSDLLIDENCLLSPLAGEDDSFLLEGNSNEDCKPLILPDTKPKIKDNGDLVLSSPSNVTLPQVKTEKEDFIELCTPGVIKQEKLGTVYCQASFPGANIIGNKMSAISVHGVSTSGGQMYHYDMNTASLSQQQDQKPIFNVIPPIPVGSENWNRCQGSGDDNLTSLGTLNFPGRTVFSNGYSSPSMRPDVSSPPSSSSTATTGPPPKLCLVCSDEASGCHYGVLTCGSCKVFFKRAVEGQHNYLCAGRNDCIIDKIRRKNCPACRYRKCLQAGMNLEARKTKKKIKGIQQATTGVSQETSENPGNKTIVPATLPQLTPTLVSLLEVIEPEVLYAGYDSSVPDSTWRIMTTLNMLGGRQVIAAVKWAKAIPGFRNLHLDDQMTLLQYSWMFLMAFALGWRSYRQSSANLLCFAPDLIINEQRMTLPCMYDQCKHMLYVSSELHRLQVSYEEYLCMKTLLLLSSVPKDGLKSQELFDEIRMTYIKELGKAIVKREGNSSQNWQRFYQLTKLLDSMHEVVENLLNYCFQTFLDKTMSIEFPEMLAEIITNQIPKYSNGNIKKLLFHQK
Procedure: Insect cells, which had been infected with baculovirus for expressing human GRα protein, were suspended in an approximately equal volume of a binding buffer (10 mM Tris-Cl, 1.5 mM EDTA, 10% glycerol, 5 mM DTT, 20 mM sodium molybdate, pH 7.6). The mixture was rapidly frozen with liquid nitrogen, and then melted at room temperature. This cycle was repeated totally twice in order to break the cell membrane. The mixture was ultracentrifuged under 100,000 g at 4° C. for one hour to give the supernatant, which was the cytoplasm fraction containing human GRα protein.
A polypropylene 96-well plate (manufactured by Costar Corporation, etc.) was placed on ice, and DMSO or a test compound (each 1 μl) was put into each well. A 10 nM ^3H-Dex solution (50 μl; tritiated dexamethasone; manufactured by Amersham) in the binding buffer, and a GR protein solution, i.e., a solution by diluting the above cytoplasm fraction with the binding buffer (50 μl) were added to each well, and the plate was lightly shaken with a plate mixer, and then left to stand at 4° C. for 16 to 20 hours (the final concentration of DMSO: 1%).
A 5% solution of dextran-coated active carbon (manufactured by Sigma) suspended in the binding buffer (50 μl) was put into each well, and the plate was lightly shaken with a plate mixer for 30 seconds. Then, the plate was centrifuged at 2500 rpm at 4° C. for 5 minutes, and the ^3H count in the supernatant (50 μl) was measured by a TopCount (manufactured by Perkin-Elmer Corporation). Each test compound was tested twice.
The binding activity was calculated as follows. The mean ^3H count in the presence of dexamethason (Dex) 10 μM was considered as NSB (non-specific binding), and the binding inhibitory ratio in each well was calculated by the following equation.
Binding Inhibitory Ratio (%)=100×{1−(cpm value of each well−NSB)/(mean cpm value of DMSO-well−NSB)}
(cpm means count per minute)
The mean binding inhibitory ratio of each well was calculated by the above equation to give a binding inhibitory ratio of each test compound.

H4-III-E cells = test: TAT (tyrosine aminotransferase) assay; assay type: cell-based; conditions: for Agonistic activity of 10 μM test compound / activation at 10 µM: 10 μM test compound alone, relative to maximum Dex-induced TAT activity (100%); for Antagonistic activity of 10 μM test compound: 10 μM test compound together with 0.005 μM dexamethasone, inhibitory ratio against TAT activity increase by Dex; for activation at 10 µM: read-out: Agonistic activity of 10 μM test compound
Procedure: H4-III-E cells, which had been continuously cultured in α-MEM medium A (supplemented with 10% inactivated FBS, 50 μM 2-mercapto-ethanol), were suspended in α-MEM medium A or α-MEM medium B (supplemented with 10% inactivated FBS, 50 μM 2-mercapto-ethanol, but without phenol red), and the cell suspension was seeded to a 96-well plate in an amount of 2×10^4 cells/100 μl/well, and the cells were cultured overnight. The supernatant in the medium was removed, and a test compound (100 μl, diluted with α-MEM medium A or α-MEM medium B) was added, and the cells were further cultured overnight. In order to measure the agonistic activity, a test compound was added alone, while in order to measure the antagonistic activity, a test compound was added simultaneously together with 0.005 μM dexamethasone and evaluated the extent of the inhibitory effect of said test compound against the TAT activity-inducing activity by dexamethasone.
The culture supernatant in the plate was removed by suction, and a cell lysate (20 μL; 1% NP-40, 0.2% Triton X-100, 0.25% DOC, 0.1% SDS, 1 mM EGTA, 150 mM NaCl, Tris (pH7.4), Protease inhibitor cocktail [2.5 mg/ml aprotinin, 2.5 mg/ml leupeptin, 2.5 mg/ml soybean trypsin inhibitor]) was added, and further thereto was added a TAT reaction reagent (150 μL; 10 N KOH, 0.125 M KH2PO4, 0.5 M α-ketoglutarate, 5 mM Pyridoxal-5′ phosphate, L-tyrosine), and the mixture was reacted at 37° C. for 15 minutes. Further, a 10N KOH (20 μL) was added thereto, and the mixture was reacted at 37° C. for 30 minutes, and the absorbance at 331 nm was measured by a microplate reader (SPECTRA MAX 250).
From the mean absorbance in the wells to which a test compound was added, the mean absorbance in the wells to which a compound and a TAT reaction solution were not added was subtracted.
Agonistic activity (%)=100×[(absorbance of the drug-treated group)−(absorbance of the group without TAT reaction reagent)]/[(absorbance of Dex-treated group)−(absorbance of the group without TAT reaction reagent)]
On the other hand, the antagonistic activity was calculated as follows.
Antagonistic activity (%)=Inhibitory ratio (%) against TAT activity increase by Dex=100−100×[(absorbance of the drug-treated group)−(absorbance of the group without a drug)]/[(absorbance of Dex-treated group)−(absorbance of the group without a drug)]
With regard to the agonistic activity and the antagonistic activity, the results of 10% or more were expressed as O, while the results of less than 10% were expressed as X.

Row | Compound | inhibition at 0.1 µM (human GRα protein) | Agonistic activity of 10 μM test compound (H4-III-E cells) | Antagonistic activity of 10 μM test compound (H4-III-E cells) | activation at 10 µM (H4-III-E cells)
1 | CCOC(=O)CCCCNCC(O)(c1cn(Cc2ccccc2)c2cc([N+](=O)[O-])ccc12)C(F)(F)F (stereo not drawn) [Example 173, Ethyl 5-{[2-(1-benzyl-6-nitro-1H-indol-3-yl)-3,3,3-trifluoro-2-hydroxypropyl]-amino}pentanoate] | 88% |  | ◯ | < 10%
2 | O=C(O)c1ccc(OC2CCN(CC(O)(c3cn(Cc4ccccc4)c4cc([N+](=O)[O-])ccc34)C(F)(F)F)CC2)cc1 (stereo not drawn) [Example 178, 4-({1-[2-(1-Benzyl-6-nitro-1H-indol-3-yl)-3,3,3-trifluoro-2-hydroxypropyl]-piperidin-4-yl}oxy)benzoic acid] | 95% | ◯ | ◯ | 
3 | CCOC(=O)Cc1ccc(OC2CCN(CC(O)(c3cn(Cc4ccccc4)c4cc([N+](=O)[O-])ccc34)C(F)(F)F)CC2)cc1 (stereo not drawn) [Example 179] | 81% | ◯ | ◯ | 
4 | O=C(O)Cc1ccc(OC2CCN(CC(O)(c3cn(Cc4ccccc4)c4cc([N+](=O)[O-])ccc34)C(F)(F)F)CC2)cc1 (stereo not drawn) [Example 180, [4-({1-[2-(1-Benzyl-6-nitro-1H-indol-3-yl)-3,3,3-trifluoro-2-hydroxypropyl]-piperidin-4-yl}oxy)phenyl]acetic acid] | 98% | ◯ | ◯ | 
5 | O=C(O)CCc1ccc(OC2CCN(CC(O)(c3cn(Cc4ccccc4)c4cc([N+](=O)[O-])ccc34)C(F)(F)F)CC2)cc1 (stereo not drawn) [Example 182, 3-[4-({1-[2-(1-Benzyl-6-nitro-1H-indol-3-yl)-3,3,3-trifluoro-2-hydroxypropyl]-piperidin-4-yl}oxy)phenyl]propanoic acid] | 99% | ◯ | ◯ | 
6 | CS(=O)(=O)C1CCN(CC(O)(c2cn(Cc3ccccc3)c3cc([N+](=O)[O-])ccc23)C(F)(F)F)CC1 (stereo not drawn) [Example 183, 2-(1-Benzyl-6-nitro-1H-indol-3-yl)-1,1,1-trifluoro-3-[4-(methylsulfonyl)piperidin-1-yl]propan-2-ol] | 88% | ◯ | ◯ | 
7 | O=[N+]([O-])c1ccc2c(C(O)(CN3CCC(Nc4ccccc4)CC3)C(F)(F)F)cn(Cc3ccccc3)c2c1 (stereo not drawn) [Example 185, 3-(4-Anilinopiperidin-1-yl)-2-(1-benzyl-6-nitro-1H-indol-3-yl)-1,1,1-trifluoropropan-2-ol] | 82% |  | ◯ | < 10%
8 | CCOC(=O)Cc1ccc(OC2CCN(CC(O)(c3cn(Cc4ccccc4)c4cc([N+](=O)[O-])ccc34)C(F)(F)F)CC2)c(OC)c1 (stereo not drawn) [Example 200, Ethyl[4-({1-[2-(1-benzyl-6-nitro-1H-indol-3-yl)-3,3,3-trifluoro-2-hydroxypropyl]-piperidin-4-yl}oxy)-3-methoxyphenyl]acetate] | 88% | ◯ | ◯ | 

Now from value to molecule, other results behind:

Row | inhibition at 0.1 µM (human GRα protein) | Compound | Agonistic activity of 10 μM test compound (H4-III-E cells) | Antagonistic activity of 10 μM test compound (H4-III-E cells) | activation at 10 µM (H4-III-E cells)
9 | 99% | CCOC(=O)CCCNCC(O)(c1cn(Cc2ccccc2)c2cc([N+](=O)[O-])ccc12)C(F)(F)F (stereo not drawn) [Example 169, Ethyl 4-{[2-(1-benzyl-6-nitro-1H-indol-3-yl)-3,3,3-trifluoro-2-hydroxypropyl]-amino}butanoate] | ◯ | ◯ | 
10 | 87% | CCOC(=O)CCc1ccc(OC2CCN(CC(O)(c3cn(Cc4ccccc4)c4cc([N+](=O)[O-])ccc34)C(F)(F)F)CC2)cc1 (stereo not drawn) [Example 181, Ethyl 3-[4-({1-[2-(1-benzyl-6-nitro-1H-indol-3-yl)-3,3,3-trifluoro-2-hydroxypropyl]piperidin-4-yl}oxy)phenyl]propanoate] | ◯ | ◯ | 
11 | 97% | O=[N+]([O-])c1ccc2c(C(O)(CN3CCC(S(=O)(=O)c4ccccc4)CC3)C(F)(F)F)cn(Cc3ccccc3)c2c1 (stereo not drawn) [Example 184, 2-(1-Benzyl-6-nitro-1H-indol-3-yl)-1,1,1-trifluoro-3-[4-(phenylsulfonyl)piperidin-1-yl]propan-2-ol] | ◯ | X (the results of less than 10% were expressed as X) | 
12 | 94% | O=C(c1cccs1)C1CCN(CC(O)(c2cn(Cc3ccccc3)c3cc([N+](=O)[O-])ccc23)C(F)(F)F)CC1 (stereo not drawn) [Example 194, {1-[2-(1-Benzyl-6-nitro-1H-indol-3-yl)-3,3,3-trifluoro-2-hydroxypropyl]piperidin-4-yl}(2-thienyl)methanone] | ◯ | ◯ | 
13 | 94% | O=C(c1cccnc1)C1CCN(CC(O)(c2cn(Cc3ccccc3)c3cc([N+](=O)[O-])ccc23)C(F)(F)F)CC1 (stereo not drawn) [Example 197, {1-[2-(1-Benzyl-6-nitro-1H-indol-3-yl)-3,3,3-trifluoro-2-hydroxypropyl]piperidin-4-yl}(pyridin-3-yl)methanone] | ◯ | ◯ | 
14 | 99% | COc1cc(CC(=O)O)ccc1OC1CCN(CC(O)(c2cn(Cc3ccccc3)c3cc([N+](=O)[O-])ccc23)C(F)(F)F)CC1 (stereo not drawn) [Example 201, [4-({1-[2-(1-Benzyl-6-nitro-1H-indol-3-yl)-3,3,3-trifluoro-2-hydroxypropyl]-piperidin-4-yl}oxy)-3-methoxyphenyl]acetic acid] | ◯ | ◯ | 
